This is an account of results in US12458640B2, “Pyrazolo[3,4-b]pyrazine SHP2 phosphatase inhibitors” (OTSUKA PHARMACEUTICAL CO., LTD., priority 2019, dated 2025).

Where a name gives a salt, the structure may show the parent alone.

For one assay, the system named is pERK. The assay is described as follows: Cellular pERK Inhibition Assay (phospho-p44/42 MAPK sandwich ELISA). It counts as cell-based. To be noted: Homo sapiens; HCC827 cells, 0.5 hours compound treatment; average where more than one data point. As for the experimental part:
Cellular pERK Inhibition Assay
HCC827 cells (ATCC, Manassas, USA) were seeded into 96-well plates at a density of 1×10^5 cells/well in RPMI medium supplemented with 10% FBS and incubated 24 h. Compounds were diluted first in DMSO and then into serum-free medium, before being added to cells in triplicate to give a final concentration of 0.1% DMSO. Plates were incubated at 37° C. for 0.5 hours in a humidified atmosphere of 5% CO2 in air.
Following compound treatment, medium was removed and cells were lysed by adding 50 μL of lysis buffer (Cell Signalling Technology, Beverly, USA) to each well. Plates were then incubated at room temperature for 25 minutes with shaking. pERK levels were measured in lysates using the PathScan® phospho-p44/42 MAPK (Thr202/Tyr204) sandwich ELISA (Cell Signalling Technology, Beverly, USA) as per kit instructions. Briefly, 50 μL of cell lysate was added to 50 μL of ELISA sample diluent in a 96-well ELISA plate and incubated overnight at 4° C. Following washing, 100 μL of detection antibody was added per well and the plates incubated for 1 hour at 37° C. Plates were washed again and incubated at 37° C. for 30 minutes with 100 μl of HRP-linked secondary antibody per well. After final washing, 100 μL per well of TMB substrate was added and plates incubated at 37° C. to develop colour. Colour development was stopped by the addition of 100 μL per well of stop solution. Plates were read at 450 nm on a SpectraMax Gemini reader (Molecular Devices, Uckfield, UK).
The average signal from blank wells (no cells added) was subtracted from the signals from each sample well. Levels of pERK were then expressed as “percent of control”, using DMSO treated samples as control. Dose response curves were generated using GraphPad Prism Version 6 (GraphPad Software, La Jolla, USA) and fitted using the four parameter logistic curve fit.

For another assay, the target named is SHP2 (Homo sapiens (Human), UniProt Q06124). The assay is described as follows: Shp2 Biochemical Assay (DiFMUP conversion). The following applies: for IC50: 10 pM SHP2, activating peptide pIRS1, DiFMUP substrate, average where more than one data point. As for the experimental part: SHP2 activity was monitored by measuring the conversion of the surrogate substrate 6,8-difluoromethylumbelliferyl phosphate (DiFMUP) to the fluorescent product, 6,8-difluoromethylumbelliferone (DiFMU).
SHP2, sequence (Q06124 whole entry): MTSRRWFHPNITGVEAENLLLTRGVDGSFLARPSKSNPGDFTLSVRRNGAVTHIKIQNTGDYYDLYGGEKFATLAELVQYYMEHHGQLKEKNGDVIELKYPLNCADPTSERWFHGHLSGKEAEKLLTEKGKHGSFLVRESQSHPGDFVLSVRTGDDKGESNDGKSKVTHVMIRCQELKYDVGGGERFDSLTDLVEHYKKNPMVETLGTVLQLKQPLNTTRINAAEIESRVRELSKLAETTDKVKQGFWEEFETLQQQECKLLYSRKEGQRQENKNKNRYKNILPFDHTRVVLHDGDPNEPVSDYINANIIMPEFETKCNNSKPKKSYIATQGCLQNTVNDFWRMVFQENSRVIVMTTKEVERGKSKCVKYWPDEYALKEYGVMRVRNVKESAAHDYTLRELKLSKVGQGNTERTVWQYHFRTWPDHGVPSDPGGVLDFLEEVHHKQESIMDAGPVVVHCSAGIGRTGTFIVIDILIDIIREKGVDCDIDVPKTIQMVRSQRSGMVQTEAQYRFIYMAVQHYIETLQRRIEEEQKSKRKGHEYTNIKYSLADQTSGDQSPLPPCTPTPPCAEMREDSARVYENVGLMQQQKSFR
SHP2 was pre-incubated with test compounds and the activating peptide pIRS1 (H2N-LN(pY)IDLDLV-(PEG)8-LST(pY)ASINFQK-amide) for 30 min, prior to addition of the 6,8-difluoromethylumbelliferyl phosphate (DiFMUP), (Thermo Fisher D6567). Final assay concentrations were 10 pM SHP2, 0.25 μM pIRS1 peptide, 50 μM DiFMUP, 25 mM Bis-Tris propane, pH 7.0, 150 mM NaCl, 0.05% (v/v) Tween-20, 0.5 mM TCEP and 5% (v/v) DMSO. Rates of reaction were then measured over 30 min by monitoring fluorescence on a BMG Pherastar reader at excitation 360 nm/emission 450 nm. IC50 values were calculated from the normalized dose-response plots using four parameter logistic curve fit.

As for `COc1cnc2ccc(-c3n[nH]c4nc(N5CCC6(CC5)COC[C@H]6N)c(C)nc34)c(Cl)c2n1` [Example 13, (4S)-8-[3-(5-chloro-3-methoxyquinoxalin-6-yl)-5-methyl-1H-pyrazolo[3,4-b]pyrazin-6-yl]-2-oxa-8-azaspiro[4.5]decan-4-amine], the IC50 with pERK came out at 95 nM. Besides, the inhibition at 0.01 µM on SHP2 (at 0.010 μM, read-out: SHP2 % inhibition at given concentration) is 35%.
`Cc1nc2c(-c3ccc4nn(C)cc4c3Cl)n[nH]c2nc1N1CCC2(CC1)CO[C@@H](C)[C@H]2N` [Example 6, (3S,4S)-8-[3-(4-Chloro-2-methyl-2H-indazol-5-yl)-5-methyl-1H-pyrazolo[3,4-b]pyrazin-6-yl]-3-methyl-2-oxa-8-azaspiro[4.5]decan-4-amine]: the IC50 was 12 nM in the assay with pERK and 18 nM at SHP2.
As for `Cc1nc2c(-c3ccc4nn(C)cc4c3Cl)n[nH]c2nc1N1CCC2(CC1)COC[C@H]2N` [Example 3, (4S)-8-[3-(4-chloro-2-methyl-2H-indazol-5-yl)-5-methyl-1H-pyrazolo[3,4-b]pyrazin-6-yl]-2-oxa-8-azaspiro[4.5]decan-4-amine], the results for the IC50 in the assay with pERK and on SHP2 were 40 nM and 5.6 nM, respectively.
Regarding `CCn1cc2c(Cl)c(-c3n[nH]c4nc(N5CCC6(CC5)COC[C@H]6N)c(C)nc34)ccc2n1` [Example 5, (4S)-8-[3-(4-chloro-2-ethyl-2H-indazol-5-yl)-5-methyl-1H-pyrazolo[3,4-b]pyrazin-6-yl]-2-oxa-8-azaspiro[4.5]decan-4-amine], the IC50 in the assay with pERK stood at 46 nM; at SHP2, 7.6 nM.
On to `Cc1nc2c(-c3ccc4nn(C)c(Cl)c4c3Cl)n[nH]c2nc1N1CCC2(CCC[C@H]2N)CC1` [Example 15, (1R)-8-[3-(3,4-dichloro-2-methyl-2H-indazol-5-yl)-5-methyl-1H-pyrazolo[3,4-b]pyrazin-6-yl]-8-azaspiro[4.5]decan-1-amine], for which the values for the IC50 with pERK and against SHP2 were 59 nM and 7.6 nM, respectively.
Turning to `Cc1nc2c(-c3ccc4ncc(N(C)C)nc4c3Cl)n[nH]c2nc1N1CCC2(CCC[C@H]2N)CC1` [Example 12, 7-(6-[(1R)-1-amino-8-azaspiro[4.5]decan-8-yl]-5-methyl-1H-pyrazolo[3,4-b]pyrazin-3-yl}-8-chloro-N,N-dimethyl-quinoxalin-2-amine], the figures for the IC50 with pERK and at SHP2 were 33 nM and 15 nM, respectively.
For `Cc1nc2c(-c3ccc4ncc(N(C)C)nc4c3Cl)n[nH]c2nc1N1CCC2(CC1)CO[C@@H](C)[C@H]2N` [Example 10, (3S,4S)-8-{3-[5-chloro-3-(dimethylamino)quinoxalin-6-yl]-5-methyl-1H-pyrazolo[3,4-b]pyrazin-6-yl}-3-methyl-2-oxa-8-azaspiro[4.5]decan-4-amine], the half-maximal inhibitory concentration (IC50) in the assay on pERK amounted to 17 nM; against SHP2 it was 19 nM.
The matching figures for `Cn1nc2ccc(-c3n[nH]c4nc(N5CCC6(CC5)CC(F)(F)C[C@H]6N)c(CO)nc34)c(Cl)c2c1Cl` [Example 16, {6-[(1R)-1-amino-3,3-difluoro-8-azaspiro[4.5]decan-8-yl]-3-(3,4-dichloro-2-methyl-2H-indazol-5-yl)-1H-pyrazolo[3,4-b]pyrazin-5-yl}methanol]: 6.2 nM and 7 nM.
In the same order, the values of `Cn1cc2c(Cl)c(-c3n[nH]c4nc(N5CCC6(CC5)CC(F)(F)C[C@H]6N)c(CO)nc34)ccc2n1` [Example 7, {6-[(1R)-1-amino-3,3-difluoro-8-azaspiro[4.5]decan-8-yl]-3-(4-chloro-2-methyl-2H-indazol-5-yl)-1H-pyrazolo[3,4-b]pyrazin-5-yl}methanol] are 6.3 nM and 11 nM.
As to `COc1cnc2ccc(-c3n[nH]c4nc(N5CCC6(CC5)CO[C@@H](C)[C@H]6N)c(C)nc34)c(Cl)c2n1` [Example 9, (3S,4S)-8-[3-(5-chloro-3-methoxyquinoxalin-6-yl)-5-methyl-1H-pyrazolo[3,4-b]pyrazin-6-yl]-3-methyl-2-oxa-8-azaspiro[4.5]decan-4-amine hydrochloride], the half-maximal inhibitory concentration (IC50) in the assay with pERK amounted to 45 nM; on SHP2 it was 18 nM.
With `Cc1nc2c(-c3ccc4nn(C)cc4c3Cl)n[nH]c2nc1N1CCC2(CC1)CC(F)(F)C[C@H]2N` [Example 2, (1R)-8-[3-(4-chloro-2-methyl-2H-indazol-5-yl)-5-methyl-1H-pyrazolo[3,4-b]pyrazin-6-yl]-3,3-difluoro-8-azaspiro[4.5]decan-1-amine hydrochloride], the IC50 in the assay on pERK worked out at 81 nM; against SHP2, 17 nM.
`C[C@@H]1OCC2(CCN(c3nc4[nH]nc(-c5cccc(Cl)c5Cl)c4nc3CO)CC2)[C@@H]1N` [Example 18, {6-[(3S,4S)-4-amino-3-methyl-2-oxa-8-azaspiro[4.5]decan-8-yl]-3-(2,3-dichlorophenyl)-1H-pyrazolo[3,4-b]pyrazin-5-yl}methanol] came in with a half-inhibitory concentration (IC50) in the assay on pERK of 4.9 nM. The inhibition at 0.003 µM at SHP2 (at 0.0030 μM, read-out: SHP2 % inhibition at given concentration) turned out to be 37%.
For `Cn1nc2ccc(-c3n[nH]c4nc(N5CCC6(CC5)C[C@H](F)C[C@H]6N)c(CO)nc34)c(Cl)c2c1Cl` [Example 20, {6-[(1R,3S)-1-amino-3-fluoro-8-azaspiro[4.5]decan-8-yl]-3-(3,4-dichloro-2-methyl-2H-indazol-5-yl)-1H-pyrazolo[3,4-b]pyrazin-5-yl}methanol], the figures for the concentration for half-maximal inhibition (IC50) with pERK and at SHP2 were 4.1 nM and 7.1 nM, respectively.
Consider `Cc1nc2c(-c3ccc4ncc(N5CCOCC5)nc4c3Cl)n[nH]c2nc1N1CCC2(CC1)CO[C@@H](C)[C@H]2N` [Example 26, (3S,4S)-8-{3-[5-chloro-3-(morpholin-4-yl)quinoxalin-6-yl]-5-methyl-1H-pyrazolo[3,4-b]pyrazin-6-yl}-3-methyl-2-oxa-8-azaspiro[4.5]decan-4-amine], for which the half-maximal inhibitory concentration (IC50) with pERK was found to be 18 nM; against SHP2, 28 nM.
For `Cc1nc2c(-c3cccc(Cl)c3F)n[nH]c2nc1N1CCC2(CC1)CO[C@@H](C)[C@H]2N` [Example 19, (3S,4S)-8-[3-(3-chloro-2-fluorophenyl)-5-methyl-1H-pyrazolo[3,4-b]pyrazin-6-yl]-3-methyl-2-oxa-8-azaspiro[4.5]decan-4-amine], the 50% inhibitory concentration (IC50) worked out at 100 nM in the assay with pERK and 9.8 nM against SHP2.
Consider `COc1cnc2ccc(-c3n[nH]c4nc(N5CCC6(CCC[C@H]6N)CC5)c(C)nc34)c(Cl)c2n1` [Example 14, (1R)-8-[3-(5-chloro-3-methoxyquinoxalin-6-yl)-5-methyl-1H-pyrazolo[3,4-b]pyrazin-6-yl]-8-azaspiro[4.5]decan-1-amine], for which the concentration for half-maximal inhibition (IC50) in the assay on pERK came to 150 nM; on SHP2 it was 13 nM.
